Results published in patent US11384060B2, “Amide compounds and use thereof” (ALPHALA CO., LTD., priority 2017, dated 2022).
Like-named read-outs stand apart in the source and are kept apart here.

Columns and labels:
glucagon receptor (GCGR) = target: T1, glucagon receptor (GCGR) (Homo sapiens, UniProt P47871); test: I125-glucagon binding assay (competition, GCGR membrane fractions)
T1 construct: expressed in transfected cells; host or cells: CHO-K1 cells overexpressing GCGR (membrane fractions)
Outline: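 Membranes from CHO-K1 cells overexpressing GCGR, 7.5 μg/well in 50 mM Tris pH 7.4 with 0.5% BSA, were preincubated 5 min with serially diluted compounds, then given 0.0625 nM final I^125-glucagon for 30 min at 25° C. Bound label was filtered on PEI-coated GF/B and counted; IC50 by non-linear regression.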

[1] = target: T2, glucagon receptor (GCGR) overexpressed CHO-K1 cells or human primary hepatocytes (Homo sapiens, UniProt P47871); test: Glucagon cAMP inhibition assay (Cisbio cAMP Dynamic 2 HTRF); assay type: cell-based
T2 construct: expressed in transfected cells; host or cells: GCGR overexpressed CHO-K1 cells or human primary hepatocytes (endogenous receptor)
Outline: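 GCGR-overexpressing CHO-K1 cells or human primary hepatocytes in HBSS with 0.1% BSA and 800 nM IBMX, pre-incubated 30 min with serially diluted compounds (1% DMSO final), then stimulated 30 min at room temperature with glucagon at its EC50. cAMP measured by HTRF after 60 min lysis; IC50 by non-linear regression.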

[2] = competition with I125-glucagon 0.0625 nM, membrane fractions of GCGR overexpressed CHO-K1 cells
[3] = inhibition of glucagon (EC50 concentration) induced cAMP production

T1 sequence (P47871 26-477): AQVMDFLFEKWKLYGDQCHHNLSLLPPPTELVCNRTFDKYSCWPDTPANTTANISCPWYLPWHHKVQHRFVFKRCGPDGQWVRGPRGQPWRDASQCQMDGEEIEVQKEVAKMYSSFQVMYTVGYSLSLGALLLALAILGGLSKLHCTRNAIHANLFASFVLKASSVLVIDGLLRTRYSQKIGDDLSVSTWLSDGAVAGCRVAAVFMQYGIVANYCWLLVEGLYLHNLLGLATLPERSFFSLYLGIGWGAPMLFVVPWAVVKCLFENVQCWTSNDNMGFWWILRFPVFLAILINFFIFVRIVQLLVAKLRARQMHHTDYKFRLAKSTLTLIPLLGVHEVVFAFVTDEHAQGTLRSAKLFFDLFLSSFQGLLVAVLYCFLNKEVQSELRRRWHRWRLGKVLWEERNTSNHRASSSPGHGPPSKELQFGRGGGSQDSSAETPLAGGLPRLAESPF
T2 sequence (P47871 26-477): as above

With CC(C)[C@@H](COc1nnc(-c2cc3ccccc3o2)o1)Nc1ccc(C(=O)NCCC(=O)O)cc1 [Compound 22-12, (S)-3-(4-((1-((5-(benzofuran-2-yl)-1,3,4-oxadiazol-2-yl)oxy)-3-methylbutan-2-yl)amino)benzamido)propanoic Acid] the IC50 (glucagon receptor (GCGR)) was over 30 µM and the “IC50 cAMP” value [1] was over 30 µM.

CC(C)[C@@H](COc1ccc(-c2cc3ncccc3o2)cc1)Nc1ccc(C(=O)NCCC(=O)O)cc1 [Compound 1-41, (S)-3-(4-((1-(4-(furo[3,2-b]pyridin-2-yl)phenoxy)-3-methylbutan-2-yl)amino)benzamido)propanoic Acid] was tested, and the IC50 (glucagon receptor (GCGR); [2]) was 0.227 µM and the “IC50 cAMP” value [1, 3] was 1.403 µM.

With CC(C)[C@@H](COc1ccc(-c2ccc(N(C)C)cc2)cc1)Nc1ccc(C(=O)NCCC(=O)O)cc1 [Compound 1-12, (S)-3-(4-((1-((4′-(dimethylamino)-[1,1′-biphenyl]-4-yl)oxy)-3-methylbutan-2-yl)amino)benzamido)propanoic Acid] the IC50 (glucagon receptor (GCGR); [2]) was 0.224 µM and the “IC50 cAMP” value [1, 3] was 0.4143 µM.

In the case of CC[C@H](C)[C@@H](COc1ccc(-c2ccc(C(F)(F)F)cc2Cl)c(C)n1)Nc1ccc(C(=O)NCCC(=O)O)cc1 [Compound 18-3, 3-(4-(((2S,3S)-1-((5-(2-chloro-4-(trifluoromethyl)phenyl)-6-methylpyridin-2-yl)oxy)-3-methylpentan-2-yl)amino)benzamido)propanoic Acid], the IC50 (glucagon receptor (GCGR)) is reported as 0.062 µM and the “IC50 cAMP” value [1] is reported as 0.075 µM.

With CCCC[C@@H](COc1ccc(-c2nnc(-c3ccccc3)o2)cc1)Nc1ccc(C(=O)NCCC(=O)O)cc1 [Compound 1-50, (S)-3-(4-((1-(4-(5-phenyl-1,3,4-oxadiazol-2-yl)phenoxy)hexan-2-yl)amino)benzamido)propanoic Acid] the IC50 (glucagon receptor (GCGR); [2]) was 0.715 µM and the “IC50 cAMP” value [1, 3] was 1.622 µM.

For CC[C@H](C)[C@@H](COc1ccc(-c2cc3ccccc3o2)c(F)c1)Nc1ccc(C(=O)NCCC(=O)O)cc1 [Compound 8-7, 3-(4-(((2S,3S)-1-(4-(benzofuran-2-yl)-3-fluorophenoxy)-3-methylpentan-2-yl)amino)benzamido)propanoic Acid], the IC50 (glucagon receptor (GCGR); [2]) was 0.186 µM and the “IC50 cAMP” value [1, 3] was 0.129 µM.

With Cc1c(-c2nnc([C@H](Cc3ccc(-c4ccc(C(F)(F)F)cc4)cc3)Nc3ccc(C(=O)NCCS(=O)(=O)O)cc3)o2)oc2ccccc12 [Compound 20-7, (S)-2-(4-((1-(5-(3-methylbenzofuran-2-yl)-1,3,4-oxadiazol-2-yl)-2-(4′-(trifluoromethyl)-[1,1′-biphenyl]-4-yl)ethyl)amino)benzamido)ethane-1-sulfonic Acid] the IC50 (glucagon receptor (GCGR)) was over 30 µM and the “IC50 cAMP” value [1] was over 30 µM.

CC(C)[C@@H](COc1ccc(-c2ccc(C(F)(F)F)cc2)nc1)Nc1ccc(C(=O)NCCC(=O)O)cc1 [Compound 10-1, (S)-3-(4-((3-methyl-1-((6-(4-(trifluoromethyl)phenyl)pyridin-3-yl)oxy)butan-2-yl)amino)benzamido)propanoic Acid] was tested, and the IC50 (glucagon receptor (GCGR); [2]) was 0.531 µM and the “IC50 cAMP” value [1, 3] was 1.959 µM.

In the case of CC(C)C[C@@H](COc1ccc(-c2ccc(C(F)(F)F)cc2F)c(F)c1)Nc1ccc(C(=O)NCCC(=O)O)cc1 [Compound 8-6, (S)-3-(4-((1-((2,2′-difluoro-4′-(trifluoromethyl)-[1,1′-biphenyl]-4-yl)oxy)-4-methylpentan-2-yl)amino)benzamido)propanoic Acid], the IC50 (glucagon receptor (GCGR); [2]) is reported as 0.172 µM and the “IC50 cAMP” value [1, 3] is reported as 0.428 µM.

For CC[C@H](C)[C@@H](COc1ccc(-c2ccc(C(F)(F)F)cc2F)c(C)n1)Nc1ccc(C(=O)NCCC(=O)O)cc1 [Compound 18-6, 3-(4-(((2S,3S)-1-((5-(2-fluoro-4-(trifluoromethyl)phenyl)-6-methylpyridin-2-yl)oxy)-3-methylpentan-2-yl)amino)benzamido)propanoic Acid], the IC50 (glucagon receptor (GCGR)) was 0.179 µM and the “IC50 cAMP” value [1] was 0.204 µM.

For O=C(O)CCNC(=O)c1ccc(N[C@H](Cc2ccc(-c3ccc(C(F)(F)F)cc3)cc2)C(=O)Nc2ccc(OC(F)(F)F)cc2)cc1 [Compound 24-28, (R)-3-(4-((1-oxo-1-((4-(trifluoromethoxy)phenyl)amino)-3-(4′-(trifluoromethyl)-[1,1′-biphenyl]-4-yl)propan-2-yl)amino)benzamido)propanoic Acid], the IC50 (glucagon receptor (GCGR)) was 0.0465 µM and the “IC50 cAMP” value [1] was 1.54 µM.

For CC(C)[C@@H](COc1ccc(-c2ccc(C(F)(F)F)cc2Cl)c(Cl)c1)Nc1ccc(C(=O)NCc2nnn[nH]2)cc1 [Compound 3-3, (S)—N-((1H-tetrazol-5-yl)methyl)-4-((1-((2,2′-dichloro-4′-(trifluoromethyl)-[1,1′-biphenyl]-4-yl)oxy)-3-methylbutan-2-yl)amino)benzamide], the IC50 (glucagon receptor (GCGR); [2]) was 0.086 µM and the “IC50 cAMP” value [1, 3] was 1.25 µM.

With CC[C@H](C)[C@@H](COc1nnc(-c2ccc(C(F)(F)F)cc2F)o1)Nc1ccc(C(=O)NCCC(=O)O)cc1 [Compound 22-1, 3-(4-(((2S,3S)-1-((5-(2-fluoro-4-(trifluoromethyl)phenyl)-1,3,4-oxadiazol-2-yl)oxy)-3-methylpentan-2-yl)amino)benzamido)propanoic Acid] the IC50 (glucagon receptor (GCGR)) was 0.062 µM and the “IC50 cAMP” value [1] was over 30 µM.

Cc1cc(OC[C@@H](Nc2ccc(C(=O)NCCC(=O)O)cc2)C(C)C)cc(C)c1-c1ccc(C(F)(F)F)cc1 [Compound 2-4, (S)-3-(4-((1-((2,6-dimethyl-4′-(trifluoromethyl)-[1,1′-biphenyl]-4-yl)oxy)-3-methylbutan-2-yl)amino)benzamido)propanoic Acid] was tested, and the IC50 (glucagon receptor (GCGR); [2]) was 0.091 µM and the “IC50 cAMP” value [1, 3] was 0.2458 µM.

In the case of CCOC(=O)CCNC(=O)c1ccc(N[C@@H](Cc2ccccc2)C(=O)Nc2ccc(-c3cc4ccccc4o3)cc2)cc1 [Compound 23-7, Ethyl (S)-3-(4-((1-((4-(benzofuran-2-yl)phenyl)amino)-1-oxo-3-phenylpropan-2-yl)amino)benzamido)propanoate], the IC50 (glucagon receptor (GCGR)) is reported as 4.27 µM and the “IC50 cAMP” value [1] is reported as 0.0643 µM.

For CC(C)COC[C@H](Cc1ccc(-c2cc3ccccc3o2)cc1)Nc1ccc(C(=O)NCCC(=O)O)cc1 [Compound 19-32, (S)-3-(4-((1-(4-(benzofuran-2-yl)phenyl)-3-isobutoxypropan-2-yl)amino)benzamido)propanoic Acid], the IC50 (glucagon receptor (GCGR)) was 0.483 µM and the “IC50 cAMP” value [1] was 1.017 µM.

In the case of CCOC(=O)CCNC(=O)c1ccc(N[C@@H](CC(C)C)C(=O)Nc2ccc(-c3cc4ccccc4s3)cc2)cc1 [Compound 23-11, Ethyl (S)-3-(4-((1-((4-(benzo[b]thiophen-2-yl)phenyl)amino)-4-methyl-1-oxopentan-2-yl)amino)benzamido)propanoate], the IC50 (glucagon receptor (GCGR); uM) is reported as over 10 µM and the “IC50 cAMP” value [1] is reported as 6.8 µM.

With CC(C)[C@@H](COc1cc(F)c(-c2ccc(C(F)(F)F)cc2Cl)c(F)c1)Nc1ccc(C(=O)NCCC(=O)O)cc1 [Compound 7-2, (S)-3-(4-((1-((2′-chloro-2,6-difluoro-4′-(trifluoromethyl)-[1,1′-biphenyl]-4-yl)oxy)-3-methylbutan-2-yl)amino)benzamido)propanoic Acid] the IC50 (glucagon receptor (GCGR); [2]) was 0.177 µM and the “IC50 cAMP” value [1, 3] was 0.201 µM.

In the case of CC(C)C[C@@H](COc1ccc(-c2cc3ccccc3o2)c(F)c1)Nc1ccc(C(=O)NCCC(=O)O)cc1 [Compound 8-20, (S)-3-(4-((1-(4-(benzofuran-2-yl)-3-fluorophenoxy)-4-methylpentan-2-yl)amino)benzamido)propanoic Acid], the IC50 (glucagon receptor (GCGR); [2]) is reported as 0.083 µM and the “IC50 cAMP” value [1, 3] is reported as 0.234 µM.

With O=C(O)CCNC(=O)c1ccc(N[C@@H](Cc2ccc3ccccc3c2)C(=O)Nc2ccc(-c3cc4ccccc4o3)cc2)cc1 [Compound 23-22, (S)-3-(4-((1-((4-(benzofuran-2-yl)phenyl)amino)-3-(naphthalen-2-yl)-1-oxopropan-2-yl)amino)benzamido)propanoic Acid] the IC50 (glucagon receptor (GCGR); uM) was over 10 µM and the “IC50 cAMP” value [1] was 32.1 µM.

In the case of Cc1cc(OC[C@@H](Cc2ccccc2)Nc2ccc(C(=O)NCCC(=O)O)cc2)cc(C)c1-c1ccc(OC(F)(F)F)cc1 [Compound 2-2], the IC50 (glucagon receptor (GCGR); [2]) is reported as 0.378 µM and the “IC50 cAMP” value [1, 3] is reported as 0.4748 µM.

In the case of CCC(C)[C@H](Nc1ccc(C(=O)NCCC(=O)O)cc1)c1nnc(-c2ccc(C(C)(C)C)cc2)o1 (stereo partly drawn) [Compound 20-3, 3-(4-(((1S)-1-(5-(4-(tert-butyl)phenyl)-1,3,4-oxadiazol-2-yl)-2-methylbutyl)amino)benzamido)propanoic Acid], the IC50 (glucagon receptor (GCGR)) is reported as 0.801 µM and the “IC50 cAMP” value [1] is reported as 9.163 µM.

In the case of CC(C)C[C@@H](COc1ccc(-c2ccc(C(F)(F)F)nn2)cn1)Nc1ccc(C(=O)NCCC(=O)O)cc1 [Compound 15-19, (S)-3-(4-((4-methyl-1-((5-(6-(trifluoromethyl)pyridazin-3-yl)pyridin-2-yl)oxy)pentan-2-yl)amino)benzamido)propanoic Acid], the IC50 (glucagon receptor (GCGR)) is reported as 2.99 µM and the “IC50 cAMP” value [1] is reported as over 30 µM.

For COC(=O)CCNC(=O)c1ccc(N[C@H](COc2ccc(-c3nc4ccccc4s3)cc2)C(C)C)cc1 [Compound 1-31, Methyl (S)-3-(4-((1-(4-(benzo[d]thiazol-2-yl)phenoxy)-3-methylbutan-2-yl)amino)benzamido)propanoate], the IC50 (glucagon receptor (GCGR); [2]) was 5.77 µM and the “IC50 cAMP” value [1, 3] was 0.083 µM.

With CC(C)C[C@@H](COc1ccc(-c2ccc(Cl)cc2Cl)c(F)c1)Nc1ccc(C(=O)NCCC(=O)O)cc1 [Compound 8-19, (S)-3-(4-((1-((2′,4′-dichloro-2-fluoro-[1,1′-biphenyl]-4-yl)oxy)-4-methylpentan-2-yl)amino)benzamido)propanoic Acid] the IC50 (glucagon receptor (GCGR); [2]) was 0.101 µM and the “IC50 cAMP” value [1, 3] was 0.182 µM.

CC[C@H](C)[C@@H](COc1ccc(-c2ccc(Cl)cc2Cl)c(C)n1)Nc1ccc(C(=O)NCCC(=O)O)cc1 [Compound 18-5, 3-(4-(((2S,3S)-1-((5-(2,4-dichlorophenyl)-6-methylpyridin-2-yl)oxy)-3-methylpentan-2-yl)amino)benzamido)propanoic Acid] was tested, and the IC50 (glucagon receptor (GCGR)) was 0.165 µM and the “IC50 cAMP” value [1] was 0.151 µM.
